Measured values as given in patent publication US20050245541A1, “Methods for treating alcoholism” (priority 2004, published 2005).
Entries after “also recorded” stand apart in the source; their conditions may differ.

How the values were obtained:
[1] = system: rat model of alcohol self-administration; test: Ethanol self-administration (operant lever press) in trained rats; assay type: in vivo, rat (male Wistar)
Experimental: FIG. 1B is a bar graph showing the amount of ethanol (EtOH) consumed in g/kg at various doses of naltrexone. Based on the number of lever press responses following a dose of naltrexone (FIG. 1A), the corresponding amount of absolute ethanol consumed (g/kg) was calculated. To calculate the amount of absolute ethanol consumed, divide the number of lever presses by 2 to obtain the number of earned reinforcements. From this number, the total volume of the alcohol “cocktail” (10% EtOH in 0.04% saccharine solution) consumed was obtained. The grams of absolute EtOH consumed=the total “cocktail” volume consumed×10% EtOH×0.793 g EtOH/mL. The amount of ethanol (g) divided by the animal's weight (kg) gives the amount of absolute ethanol consumed in g/kg.
(§1) Male Wistar rats (starting weight of 200±30 grams; Charles River Laboratories, Mass.) were individually housed with free access to food and water. The vivarium was maintained within the temperature and relative humidity range specified within the Guide for Care and Use of Laboratory Animals (NIH Publication No. 86-23, revised 1985). These conditions were recorded once daily throughout the study. The vivarium was on a 12 hour light/dark schedule. All animal studies were reviewed and approved by the Alkermes' IACUC (protocol #04-2A).
Animals were trained daily in an operant chamber to press a lever to receive access to an ethanol cocktail as a reinforcer using a saccharin fading procedure. […] The final ethanol cocktail contained 10% ethanol in 0.04% saccharine. Each session lasted 30 minutes, during which the rat could press the lever twice to gain access to 0.1 mL of the ethanol cocktail. The operant chamber (Coulbourne Instruments, Allentown, Pa.) is a computer-controlled automated system which recorded the number of lever presses completed by a rat. At the end of the training period (6-8 weeks), rats which consistently drank a sufficient quantity of ethanol to produce a pharmacological effect (minimum intake of 0.6 g/kg/hour) were selected to participate in the drug studies. These trained rats were used repeatedly throughout these studies to control for intra-subject variability. All drugs were administered acutely with a minimum of a 2 day drug washout period.
Naltrexone was prepared daily in 0.9% saline and administered subcutaneously (SC). The dopamine D2 partial agonist aripiprazole was suspended in 3% carboxymethyl cellulose; a total volume of 1 mL/kg of this suspension was delivered orally (PO) to the rat using a gavage tube. See Table 1 for source and lot numbers of the drugs tested.
The ability of naltrexone to reduce ethanol drinking (i.e., decrease the number of lever presses) was assessed in this animal model of self administration of ethanol. Thirty minutes after the administration of naltrexone (0-6 mg/kg, SC), the animals were placed in the operant chamber and allowed to lever press for the 10% ethanol cocktail. The total number of lever presses was recorded over the 30 minute test session. The rats were repeatedly dosed with naltrexone to generate a dose-response curve for each individual animal.
The dopamine D2 partial agonist aripiprazole was coadministered with naltrexone to determine if it affected naltrexone's ability to decease ethanol drinking. The dose of naltrexone used in this series of studies was the ED50 (that is, the dose of naltrexone that produced a 50% decrease in lever responses for ethanol as determined from the dose-response study). This dose allows one to determine if the coadministered drugs impaired or enhanced naltrexone's effect on ethanol drinking. Aripiprazole was administered orally 30 minutes prior to a naltrexone injection (SC) (i.e., 60 minutes prior to the beginning of the ethanol drinking test session). The number of lever presses for the ethanol cocktail was recorded at the end of the 30 minute session.

[2] = system: rat model of alcohol self-administration; test: as above; assay type: in vivo, rat (male Wistar); conditions: naltrexone 0.5 mg/kg sc, 0.1% saccharine solution substituted for ethanol cocktail
[3] = system: audiogenic-induced convulsions in mice exhibiting symptoms of alcohol withdrawal; test: Audiogenic-induced convulsions in mouse model of alcohol withdrawal; assay type: in vivo, mouse (male C57BL/6); conditions: for Withdrawal Rating (mean ± sem), behavioral response scale of 1-4: mouse
Experimental: as §1, with “C57BL/6 mice” for “Wistar rats”, “15-18” for “200±30”, “were” for “were individually”, “housed in groups of 4 on a ventilated rack” for “housed”, “#04-8A).” for “#04-2A).”
Persistent high alcohol levels in blood and brain are required to develop withdrawal symptoms following termination of alcohol availability. […] Alcohol is provided in a nutritionally balanced liquid diet. This diet becomes the animal's sole source of food and water. While the experimenter controls the duration of the alcohol exposure, the animal determines the dose and pattern of consumption.
After a 3-5 day acclimation period, the mice were individually identified (tail mark with permanent marker) and weighed. The normal rodent chow and water was replaced with a nutritionally complete control liquid diet (Bio-Serv, Lieber-DeCarli diet) for a 5-7 day habituation period. Acquisition of EtOH drinking in mice involved a gradually escalating ethanol concentration procedure. Ethanol treated animals received an EtOH liquid diet containing 1.5% EtOH for 5-7 days. The EtOH concentration was increased every 5-7 days to a final concentration of 6.7%. The liquid diet was administered in a screw capped graduated 100 mL liquid feeding tube mounted inside the cage. The volume of remaining diet was measured and the diet changed daily. The mice were observed daily and weighed every week to assure adequate EtOH diet intake.
Development of alcohol withdrawal symptoms requires a cycle of alcohol/no alcohol. The animals were given a period of 14 days of the EtOH diet (6.7%), 2 days of control diet (balanced isocalorically with maltose dextrin replacing the EtOH) and 5-6 days of the EtOH diet.
One of the hallmark symptoms of alcohol withdrawal in mice is the occurrence of convulsions. These can occur spontaneously, from handling the animal, from a sudden loud sound (audiogenic) or from subthreshold doses of chemical convulsants. For this series of studies, the occurrence of audiogenic-induced convulsions was used as a measure of alcohol withdrawal. […]
Mice from each cage were randomly assigned to one of three groups, vehicle+saline, aripiprazole (10 mg/kg, PO)+saline, or aripiprazole (10 mg/kg, PO)+naltrexone (3 mg/kg, IP). […] Each mouse's behavior in response to the bell was observed by two investigators and the agreed upon results were recorded.

O=C1CC[C@@]2(O)[C@H]3Cc4ccc(O)c5c4[C@@]2(CCN3CC2CC2)[C@H]1O5 [Naltrexone]
Number of Lever Presses (mean ± sem) ([1]; aripiprazole 0.0 mg/kg PO (vehicle) + naltrexone 0.1 mg/kg SC, rat): 62 ± 13
Decrease in lever presses versus baseline and vehicle control (significance) ([1]; lowest dose of naltrexone tested, 0.05 mg/kg): no significant decrease
Decrease in the number of lever presses compared to baseline ([1]; naltrexone alone group of the aripiprazole interaction study (naltrexone 0.1 mg/kg SC per Table 4)): 47.54%
Specificity of decrease in drinking: lever pressing for saccharine versus ethanol cocktail [2]: to the same degree as under the non-drug baseline condition; also recorded: selective for decreasing ethanol drinking in rats (but not saccharine drinking)
Difference between naltrexone and non-naltrexone groups on the audiogenic convulsion test ([3]; naltrexone 3 mg/kg coadministered with aripiprazole 10 mg/kg PO): no statistical differences

O=C1CCc2ccc(OCCCCN3CCN(c4cccc(Cl)c4Cl)CC3)cc2N1 [Aripiprazole, 7-{4-[4-(2,3-dichlorophenyl)-1-piperazinyl]-butoxy}-3-,4-dihydro carbostyril]
Number of Lever Presses (mean ± sem) ([1]; aripiprazole 0.1 mg/kg PO + naltrexone 0.1 mg/kg SC, rat): 42 ± 11
Number of Lever Presses (mean ± sem) ([1]; aripiprazole 1.0 mg/kg PO + naltrexone 0.1 mg/kg SC, rat): 45 ± 8
Number of Lever Presses (mean ± sem) ([1]; aripiprazole 10.0 mg/kg PO + naltrexone 0.1 mg/kg SC, rat): 37 ± 7
Number of Lever Presses (mean ± sem) ([1]; aripiprazole 10.0 mg/kg PO, no naltrexone, rat): 118 ± 26
Ethanol-motivated lever presses, combination of naltrexone and aripiprazole versus naltrexone alone ([1]; aripiprazole 0.1-10 mg/kg PO + naltrexone SC, rat): no statistical difference
Withdrawal Rating (mean ± sem), behavioral response scale of 1-4 ([3]; aripiprazole 10 mg/kg PO + naltrexone 3 mg/kg): 1.0 ± 0.0
Withdrawal Rating (mean ± sem), behavioral response scale of 1-4 ([3]; aripiprazole 10 mg/kg PO + saline): 1.0 ± 0.0
Anticonvulsant effect on the audiogenic convulsion test ([3]; aripiprazole 10 mg/kg PO with or without naltrexone, p=0.004): significant drug effect (anticonvulsant effect)
